According to patent publication US20110269231A1, “PROTEOGLYCAN-BINDING PEPTIDES THAT MODULATE STEM CELL BEHAVIOR” (WISCONSIN ALUMNI RESEARCH FOUNDATION, priority 2010, published 2011):
Square brackets hold non-standard residues; d marks the D form. Ends that are not written are not given here. Gla = N[C@@H](CC(C(=O)O)C(=O)O)C(=O)O

How the values were obtained:
hMSCs [1] = test: hMSC adhesion on RGESP- and RGDSP-presenting SAMs; format: cell-based, human; settings: for hMSC attachment (number per unit area): RGDSP=0.0001, 0.001 or 0.01 vs RGESP alone, 12 hrs attachment
Method: (§1) To maintain multipotency, hMSCs were expanded at low density on tissue culture treated polystyrene plates. At passage 6, cells were harvested from the plate, suspended in medium supplemented with 10% fetal bovine serum, and counted using a hemacytometer. Cells were collected as a pellet by centrifugation at 1100 rpm for 5 minutes, the media was decanted off of the pellet, and the cells were suspended in fresh αMEM at a density of 20,000 cells/250 μL. SAM preparation and peptide conjugation were performed using the protocols described above Immediately after peptide conjugation, SAMs were placed into 1 mL of 1× PBS (pH 7.4) in a 12-well tissue culture plate to prevent degradation of the monolayer due to air oxidation. PBS was aspirated from the wells and replaced with 1.25 mL of αMEM, followed by addition of 250 μL of the cell suspension directly over the SAM substrate in each well. Plates were then gently rocked for 10 seconds to evenly distribute cells over the substrate surface. Substrates were then incubated for a specified time frame (12 hrs for RGESP/RGDSP SAMs, 4 hrs for RGDSP/TYRSRKY SAM in a humid environment at 37° C., 5% CO2 to allow hMSC attachment. At the end of the attachment period, the hMSC growth media was aspirated from the well and the substrates were gently washed with sterile 1× PBS to remove any loosely bound cells. The 1× PBS solution was then replaced with fresh medium. Brightfield photomicrographs of cells were then collected using an Olympus IX51 inverted microscope.
(§2) hMSCs were seeded on the SAMs as described previously. After washing away loosely bound cells using 1× PBS, cytoskeletal immunostaining of hMSCs was performed by following the protocol supplied by the manufacturer. Briefly, a 4% paraformaldehyde solution in 1× PBS was added to the wells for 15 minutes to fix the cells, followed by a 5 minute incubation in a 1× PBS solution containing 0.05% Tween-20 to permeabilize the cells. […] After blocking, a 1× PBS solution containing an anti-Vinculin primary antibody was added to each well and allowed to incubate at room temperature for 60 minutes. The wells were then washed gently three times using a 1× PBS solution containing 0.1 wt % bovine serum albumin. Immediately after washing, a 1× PBS solution containing a fluorescein-tagged […] secondary antibody and a TRITC-tagged anti-Phalloidin antibody was added to each well and allowed to incubate at room temperature for 45 minutes. Substrates were then washed using the method described previously. Cytoskeletal staining was analyzed using an Olympus IX51 inverted epifluorescent microscope equipped with FITC and TRITC filter cube sets.

[2] = Binding of synthetic KRT peptide to hydroxyapatite (micro-BCA depletion); settings: 50 μM peptide, 1 mg hydroxyapatite, 30 minutes at 37° C.
Method: A 50 μM peptide solution containing the synthetic KRT peptide, KRTGQYKLGGGAAAA(Gla)PRR(Gla)VA(Gla)L (SEQ ID NO: 12), was incubated with 1 mg of hydroxyapatite particles for 30 minutes at 37° C. After incubation, the concentration of peptide in solution was determined using a micro-BCA assay (Pierce) as a measure of the depletion of the peptide from solution due to hydroxyapatite binding.

hMSCs [3] = test: hMSC projected cell area on SAMs presenting RGDSP and TYRSRKY; format: cell-based, human
Method: as §1, §2

[4] = test system: human umbilical vein endothelial cells (HUVECs); test: HUVEC proliferation versus KRTGQYKL surface density and FGF-2 concentration; format: cell-based; settings: 2% RGDSP, 10% FBS
Method: Human umbilical vein endothelial cells (HUVECs) as a model cell type were used to investigate the correlation between the surface density of bound heparin PGs, the concentration of soluble FGF-2, and the extent of up-regulation of FGF-mediated cell proliferation.
HUVECs were cultured according to the protocol supplied by the manufacturer. Sub-confluent cells were harvested from the plate, suspended in M199 supplemented with 10% FBS, and counted using a hemacytometer. Cells were collected as a pellet by centrifugation at 1100 rpm for 5 minutes, the media was decanted off of the pellet, and the cells were suspended in fresh serum-supplemented M199 at a density of 20,000 cells/250 μL. SAMs presenting 2% RGDSP (SEQ ID NO: 8) and various densities of KRTGQYKL (SEQ ID NO: 1) were prepared by incubating NHS-activated SAMs in 1× PBS solutions containing 125 μM RGDSP (SEQ ID NO: 8), and various molar ratios of KRTGQYKL (SEQ ID NO: 1) and TYRKKGLQ (SEQ ID NO: 9) at a total concentration of 125 μM Immediately after peptide conjugation, HUVECs were seeded on the SAM substrates at a density of 10,000 cells/cm^2 in M199 supplemented with 10% FBS. […] Brightfield photomicrographs (40× mag) of each substrate were collected on an Olympus IX51 inverted epifluorescent microscope at t=0, 24, 48, and 72 hrs, and the total number of cells per viewing area was counted manually.

hMSCs [5] = test: hMSC proliferation on KRTGQYKL-SAMs in the presence of FBS and PD 173074; format: cell-based, human; settings: 200 nM PD 173074, 10% FBS; FIG. 11
Method: Proliferation of hMSCs cultured on KRTGQYKL-SAMs in medium supplemented with FBS and PD 173074 was determined PD 173074 is a soluble inhibitor of FGF-2 and FGF-4 cognate receptors FGF receptor-1 and -3. hMSCs were cultured on SAMs presenting 2% RGDSP (SEQ ID NO: 8) and either 2% KRTGQYL (SEQ ID NO: 1) or TYRKKGLQ (SEQ ID NO: 9) in medium supplemented with 200 nM PD 173074 and 10% FBS.
hMSCs were expanded at low density on tissue culture treated polystyrene plates using the method described previously by Sotiropoulou et al. to maintain […] (Sotiropoulou et al., “Characterization of the optimal culture conditions for clinical scale production of human mesenchymal stem cells,” Stem Cells, 24:462 (2006)). At passage 6, cells were harvested from the plate, suspended in medium supplemented with 10% fetal bovine serum, and counted using a hemacytometer. Cells were collected as a pellet by centrifugation at 1100 rpm for 5 minutes, the media was decanted off of the pellet, and the cells were suspended in αMEM supplemented with 10% FBS at a density of 20,000 cells/250 μL. […] The total number of cells per viewing area was counted manually for 3 samples per condition.

[6] = biological target: T1, alpha-5 beta-1 integrins (on human mesenchymal stem cells) (human, UniProt P08648 42-1049; P05556 21-798); test: hMSCs cultured on RGDSP-presenting SAMs in osteogenic induction medium (cell area, cell number, alkaline phosphatase)
T1 construct: whole, on cells; Endogenous integrin on hMSCs; also called hMSC integrin receptors
T1 sequence (P08648 42-1049, chain 1 of 2): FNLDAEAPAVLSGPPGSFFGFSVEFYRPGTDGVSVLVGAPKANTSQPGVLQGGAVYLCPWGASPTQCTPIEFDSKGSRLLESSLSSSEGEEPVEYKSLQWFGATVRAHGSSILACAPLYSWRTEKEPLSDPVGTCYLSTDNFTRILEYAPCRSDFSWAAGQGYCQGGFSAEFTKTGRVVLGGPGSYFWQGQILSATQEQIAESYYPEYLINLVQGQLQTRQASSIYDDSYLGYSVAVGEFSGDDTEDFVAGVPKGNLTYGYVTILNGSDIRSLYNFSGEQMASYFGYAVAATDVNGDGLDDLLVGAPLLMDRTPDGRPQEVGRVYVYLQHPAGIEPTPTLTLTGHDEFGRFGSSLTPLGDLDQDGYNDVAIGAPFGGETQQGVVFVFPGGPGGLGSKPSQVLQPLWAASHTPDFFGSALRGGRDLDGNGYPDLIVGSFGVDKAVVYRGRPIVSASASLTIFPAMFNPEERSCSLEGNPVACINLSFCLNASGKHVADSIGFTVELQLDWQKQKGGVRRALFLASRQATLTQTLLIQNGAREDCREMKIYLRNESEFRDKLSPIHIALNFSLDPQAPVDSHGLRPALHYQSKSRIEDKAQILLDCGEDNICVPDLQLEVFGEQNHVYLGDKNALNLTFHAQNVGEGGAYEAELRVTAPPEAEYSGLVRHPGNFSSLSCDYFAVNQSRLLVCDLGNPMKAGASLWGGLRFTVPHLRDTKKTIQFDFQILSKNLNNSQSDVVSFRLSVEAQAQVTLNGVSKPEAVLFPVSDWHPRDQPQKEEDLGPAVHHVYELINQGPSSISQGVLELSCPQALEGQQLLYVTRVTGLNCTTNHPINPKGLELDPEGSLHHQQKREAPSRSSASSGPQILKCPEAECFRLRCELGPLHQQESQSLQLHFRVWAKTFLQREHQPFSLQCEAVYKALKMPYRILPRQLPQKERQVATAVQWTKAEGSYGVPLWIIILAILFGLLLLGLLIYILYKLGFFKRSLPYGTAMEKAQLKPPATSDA
T1 sequence (P05556 21-798, chain 2 of 2): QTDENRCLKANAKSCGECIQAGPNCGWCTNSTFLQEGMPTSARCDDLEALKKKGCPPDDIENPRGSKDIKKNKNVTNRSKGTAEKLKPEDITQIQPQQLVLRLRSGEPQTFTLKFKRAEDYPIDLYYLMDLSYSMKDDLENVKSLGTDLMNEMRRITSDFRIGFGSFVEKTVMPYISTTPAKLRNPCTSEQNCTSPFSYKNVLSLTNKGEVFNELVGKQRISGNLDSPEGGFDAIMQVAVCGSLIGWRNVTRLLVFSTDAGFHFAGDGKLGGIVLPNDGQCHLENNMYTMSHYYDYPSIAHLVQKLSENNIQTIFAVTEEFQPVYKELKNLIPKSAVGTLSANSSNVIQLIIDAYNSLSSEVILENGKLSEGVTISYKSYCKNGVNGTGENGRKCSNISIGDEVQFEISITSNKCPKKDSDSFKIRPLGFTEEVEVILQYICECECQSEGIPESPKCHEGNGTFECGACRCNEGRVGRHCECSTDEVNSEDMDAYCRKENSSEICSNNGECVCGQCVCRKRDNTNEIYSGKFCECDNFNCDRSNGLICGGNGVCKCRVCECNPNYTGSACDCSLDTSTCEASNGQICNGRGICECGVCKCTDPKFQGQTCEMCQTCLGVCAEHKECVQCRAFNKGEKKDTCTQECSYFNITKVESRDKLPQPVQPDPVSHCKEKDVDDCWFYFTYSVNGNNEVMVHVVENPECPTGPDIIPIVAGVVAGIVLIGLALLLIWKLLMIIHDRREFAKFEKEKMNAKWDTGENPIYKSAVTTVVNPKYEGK
Method: SAMs were prepared as previously described. Low passage number hMSCs were harvested from polystyrene plates and seeded on SAMs presenting RGDSP (SEQ ID NO: 8), RGDSP(SEQ ID NO: 8)/[…](SEQ ID NO: 1), or RGDSP(SEQ ID NO: 8)/TYRSRKY(SEQ ID NO: 2), at specified surface densities at a cell density of 2500 cells/cm². Cells were cultured in αMEM basal medium supplemented with 10% FBS, 50 μg/mL 2-phosphate ascorbic acid, 10 mM β-glycerophosphate, and 100 nM dexamethasone for 7 days. Brightfield images of cells were collected to measure cell projected area and quantification of cell number as a function of time. At the end of the 7-day culture period, alkaline phosphatase activity was analyzed using the SensoLyte FDP alkaline phosphatase assay kid (Anaspec, Fremont, Calif.).

recombinant human FGF-2 = biological target: T2, recombinant human FGF-2 (human, UniProt P09038 135-288, limits assumed); test: PM-IRRAS of 1% KRTGQYKL-SAMs after 20 min in 1x PBS with FGF-2
T2 construct: also called rhFGF-2; fibroblast growth factor-2
T2 sequence (P09038 135-288 limits assumed): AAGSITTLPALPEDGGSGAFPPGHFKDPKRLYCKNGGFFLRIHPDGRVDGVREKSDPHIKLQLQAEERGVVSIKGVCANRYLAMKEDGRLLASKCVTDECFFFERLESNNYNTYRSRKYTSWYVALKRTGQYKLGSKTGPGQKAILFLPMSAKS
Method: PM-IRRAS was used to characterize FGF-2 binding onto […]-SAMs. 1% […] SAMs were incubated in a lx PBS solution (pH 7.4) containing 10 μg/mL recombinant human FGF-2 for 20 minutes and analyzed using PM-IRRAS.

RGESP (not fully specified (C-terminus)) [amine-terminated peptide co-immobilized with RGDSP on SAMs, reference compound]
influence of co-immobilized peptide on RGDSP-dependent hMSC adhesion (hMSCs [1]): did not influence RGDSP-dependent hMSC adhesion | hMSC attachment (number per unit area) (hMSCs [1]): absent

RGDSP
number of focal adhesion complexes versus RGDSP surface density (hMSCs [1]; FIGS. 36 and 38): direct correlation | hMSC attachment (number per unit area) (hMSCs [1]): significant number of hMSCs were present | hMSC morphology (hMSCs [1]; higher RGDSP densities (RGDSP=0.001 or 0.01)): more well-spread morphology | hMSC morphology (hMSCs [1]; low density of RGDSP (RGDSP=0.0001)): polarized, spindle-shaped morphology

KRTGQYKLGGGAAAA(Gla)PRR(Gla)VA(Gla)L (KRTGQYKLGGGAAAA[Gla]PRR[Gla]VA[Gla]L; not fully specified (C-terminus); printed as KRTGQYKLGGGAAAA(Gla)PRR(Gla)VA(Gla)L) [KRT peptide]
peptide bound by hydroxyapatite particles [2]: 66.08 nmol/m^2

TYRSRKY
hMSC morphology (projected cell area) (hMSCs [3]; 0.1% RGDSP, 0.1-1% TYRSRKY, 10% FBS): rounded morphology | hMSC morphology (projected cell area) (hMSCs [3]; 0.1% RGDSP, high TYRSRKY density, absence of serum): well-spread morphology | hMSC morphology (projected cell area) (hMSCs [3]; 0.1% RGDSP, low TYRSRKY surface density, absence of serum): rounded hMSCs morphology | hMSC morphology (projected cell area) (hMSCs [3]; 1.0% RGDSP, 0.1-1.0% TYRSRKY, absence of serum): well-spread hMSC morphology | hMSC spreading (hMSCs [3]; 1.0% RGDSP, TYRSRKY>0.5%, 10% FBS): decrease in hMSC spreading | hMSC morphology (projected cell area) (hMSCs [3]; SAMs presenting 0.1-1.0% TYRSRKY, no RGDSP, presence or absence of serum): rounded morphology

KRTGQYKL
HUVEC number ([4]; surface density of 2% KRTGQYKL, 1 ng/mL FGF-2): significant increase | HUVEC number ([4]; surface density of KRTGQYKL>0.1%, 5 ng/mL FGF-2, by 72 hours): significant increase

CCN(CC)CCCCNc1ncc2cc(-c3cc(OC)cc(OC)c3)c(NC(=O)NC(C)(C)C)nc2n1 [PD 173074]
increased proliferation of hMSCs on KRTGQYKL SAMs (hMSCs [5]): completely abolished

B1: RGDSP cell adhesion (integrin-binding) peptide (SEQ ID NO: 8), immobilized on a self-assembled monolayer (peptide)
peptide: RGDSP-NH2
modifications: also: immobilized on SAM on gold
notes: Made by Fmoc solid phase synthesis on Rink amide MBHA resin and conjugated to a SAM on gold; also called RGDSP SAMs; cell-adhesion peptide
binding result [6]: binds

B2: KRTGQYKL synthetic heparin-binding peptide (SEQ ID NO: 1), immobilized on a self-assembled monolayer (peptide)
peptide: KRTGQYKL-NH2
modifications: also: immobilized on oligo(ethylene glycol) alkanethiolate SAM on gold
notes: Made by Fmoc solid phase synthesis on Rink amide MBHA resin
binding result (recombinant human FGF-2): no binding (tested: 10 µg/mL recombinant human FGF-2)
